Results from patent US20100267561A1, “HERBICIDAL PYRIDAZINONE DERIVATIVES” (priority 2007, published 2010).

Key:
Format in all cases: in vivo
[1] = tested on: windgrass (Apera spica-venti); experiment: Test B postemergence plant response; conditions: Postemergence
Procedure, shortened: (§1)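 Compounds applied after emergence to 2–18 cm plants; response read visually 13–15 days later on 0 (none) to 100 (complete control); a dash marks no result.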

[2] = tested on: canarygrass (Phalaris minor); experiment: Test B postemergence plant response; conditions: Postemergence
Procedure, shortened: as §1

[3] = tested on: chickweed (Stellaria media); experiment: Test B postemergence plant response; conditions: Postemergence
Procedure, shortened: as §1

[4] = tested on: winter barley (Hordeum vulgare); experiment: Test B postemergence plant response; conditions: Postemergence
Procedure, shortened: as §1

[5] = tested on: downy bromegrass (Bromus tectorum); experiment: Test B pre-/postemergence plant response
Excerpt: (§2) Seeds of plant species selected from blackgrass (Alopecurus myosuroides), downy bromegrass (Bromus tectorum), green foxtail (Setaria viridis), Italian ryegrass (Lolium multiflorum), wheat (Triticum aestivum), wild oat (Avena fatua), catchweed bedstraw (Galium aparine), bermudagrass (Cynodon dactylon), surinam grass (Brachiaria decumbens), cocklebur (Xanthium strumarium), corn (Zea mays), large crabgrass (Digitaria sanguinalis), woolly cupgrass (Eriochloa villosa), giant foxtail (Setaria faberii), goosegrass (Eleusine indica), johnsongrass (Sorghum halepense), kochia (Kochia scoparia), lambsquarters (Chenopodium album), morningglory (Ipomoea coccinea), eastern black (E.B.) nightshade (Solanum ptycanthum), yellow nutsedge (Cyperus esculentus), pigweed (Amaranthus retroflexus), common ragweed (Ambrosia elation), Russian thistle (Salsola iberica), soybean (Glycine max), common (oilseed) sunflower (Helianthus annuus), and velvetleaf (Abutilon theophrasti) were planted and treated preemergence with test chemicals formulated in a non-phytotoxic solvent mixture which included a surfactant.
(§3) At the same time, plants selected from these crop and weed species and also winter barley (Hordeum vulgare), canarygrass (Phalaris minor), chickweed (Stellaria media) and windgrass (Apera spica-venti) were treated with postemergence applications of some of the test chemicals formulated in the same manner. Plants ranged in height from 2 to 18 cm (1- to 4-leaf stage) for postemergence treatments.
(§4) Plant species in the flooded paddy test consisted of rice (Oryza sativa), umbrella sedge (Cyperus difformis), ducksalad (Heteranthera limosa) and barnyardgrass (Echinochloa crus-galli) grown to the 2-leaf stage for testing. At time of treatment, test pots were flooded to 3 cm above the soil surface, treated by application of test compounds directly to the paddy water, and then maintained at that water depth for the duration of the test. Treated plants and controls were maintained in a greenhouse for 13 to 15 days, after which time all species were compared to controls and visually evaluated. Plant response ratings, summarized in Table B, are based on a scale of 0 to 100 where 0 is no effect and 100 is complete control. A dash (-) response means no test result.

[6] = tested on: bermudagrass (Cynodon dactylon); experiment: Test B pre-/postemergence plant response
Excerpt: as §2, §3, §4

[7] = tested on: morningglory (Ipomoea coccinea); experiment: Test B pre-/postemergence plant response
Excerpt: as §2, §3, §4

[8] = tested on: soybean (Glycine max); experiment: Test B pre-/postemergence plant response
Excerpt: as §2, §3, §4

[9] = tested on: lambsquarters (Chenopodium album); experiment: Test B pre-/postemergence plant response
Excerpt: as §2, §3, §4

[10] = tested on: surinam grass (Brachiaria decumbens); experiment: Test B pre-/postemergence plant response
Excerpt: as §2, §3, §4

[11] = tested on: common (oilseed) sunflower (Helianthus annuus); experiment: Test B pre-/postemergence plant response; conditions: Preemergence
Excerpt: as §2, §3, §4

[12] = tested on: Italian ryegrass (Lolium multiflorum); experiment: Test B pre-/postemergence plant response
Excerpt: as §2, §3, §4

[13] = tested on: giant foxtail (Setaria faberii); experiment: Test B pre-/postemergence plant response
Excerpt: as §2, §3, §4

[14] = tested on: wheat (Triticum aestivum); experiment: Test B pre-/postemergence plant response
Excerpt: as §2, §3, §4

[15] = tested on: pigweed (Amaranthus retroflexus); experiment: Test B pre-/postemergence plant response
Excerpt: as §2, §3, §4

[16] = 31 g ai/ha, scale 0 to 100, 0 no effect, 100 complete control
[17] = Postemergence, 31 g ai/ha, scale 0 to 100, 0 no effect, 100 complete control
[18] = Postemergence, 62 g ai/ha, scale 0 to 100
[19] = Postemergence, 125 g ai/ha, scale 0 to 100
[20] = Postemergence, 250 g ai/ha, scale 0 to 100
[21] = Preemergence, 31 g ai/ha, 0 to 100 scale, 0 no effect, 100 complete control
[22] = Preemergence, 62 g ai/ha, scale 0 to 100
[23] = Preemergence, 125 g ai/ha, scale 0 to 100
[24] = Preemergence, 250 g ai/ha, scale 0 to 100

SMILES: Cc1cc(-c2ccc(Br)cc2)nn1-c1c(OC(=O)OC(C)C)cnn(C)c1=O [Compound 6]
- Plant response rating, Windgrass [1, 16]: 90
- Plant response rating, Windgrass ([1]; 62 g ai/ha, scale 0 to 100): 95
- Plant response rating, Windgrass ([1]; 125 g ai/ha, scale 0 to 100): 100
- Plant response rating, Windgrass ([1]; 250 g ai/ha, scale 0 to 100): 100
- Plant response rating, Canarygrass [2, 16]: 95
- Plant response rating, Canarygrass ([2]; 62 g ai/ha, scale 0 to 100): 95
- Plant response rating, Canarygrass ([2]; 125 g ai/ha, scale 0 to 100): 100
- Plant response rating, Canarygrass ([2]; 250 g ai/ha, scale 0 to 100): 100
- Plant response rating, Chickweed [3, 16]: 0
- Plant response rating, Chickweed ([3]; 62 g ai/ha, scale 0 to 100): 0
- Plant response rating, Chickweed ([3]; 125 g ai/ha, scale 0 to 100): 0
- Plant response rating, Chickweed ([3]; 250 g ai/ha, scale 0 to 100): 0
- Plant response rating, Barley [4, 16]: 30
- Plant response rating, Barley ([4]; 62 g ai/ha, scale 0 to 100): 30
- Plant response rating, Barley ([4]; 125 g ai/ha, scale 0 to 100): 80
- Plant response rating, Barley ([4]; 250 g ai/ha, scale 0 to 100): 80
- Plant response rating, Bromegrass, Downy [5, 17]: 5
- Plant response rating, Bromegrass, Downy [5, 18]: 5
- Plant response rating, Bromegrass, Downy [5, 19]: 5
- Plant response rating, Bromegrass, Downy [5, 20]: 10
- Plant response rating, Bromegrass, Downy [5, 21]: 50
- Plant response rating, Bromegrass, Downy [5, 22]: 65
- Plant response rating, Bromegrass, Downy [5, 23]: 65
- Plant response rating, Bromegrass, Downy ([5]; Preemergence, 250 g ai/ha, scale 0 to 100 (0 no effect, 100 complete control)): 95
- Bermudagrass plant response rating ([6]; 250 g ai/ha, preemergence, 0-100 scale): 100
- Plant response rating, Bermudagrass [6, 17]: 100
- Plant response rating, Bermudagrass [6, 18]: 100
- Plant response rating, Bermudagrass [6, 19]: 100
- Plant response rating, Bermudagrass [6, 20]: 100
- Plant response rating, Bermudagrass [6, 21]: 100
- Plant response rating, Bermudagrass [6, 22]: 100
- Plant response rating, Bermudagrass [6, 23]: 100
- Plant response rating, Morningglory [7, 17]: 0
- Plant response rating, Morningglory [7, 18]: 0
- Plant response rating, Morningglory [7, 19]: 0
- Plant response rating, Morningglory [7, 20]: 50
- Plant response rating, Morningglory [7, 21]: 0
- Plant response rating, Morningglory [7, 22]: 0
- Plant response rating, Morningglory [7, 23]: 0
- Plant response rating, Morningglory [7, 24]: 0
- Plant response rating, Soybean [8, 17]: 0
- Plant response rating, Soybean [8, 18]: 60
- Plant response rating, Soybean [8, 19]: 75
- Plant response rating, Soybean [8, 20]: 90
- Plant response rating, Soybean [8, 21]: 0
- Plant response rating, Soybean [8, 22]: 0
- Plant response rating, Soybean [8, 23]: 40
- Plant response rating, Soybean [8, 24]: 70
- Plant response rating, Lambsquarters [9, 17]: 0
- Plant response rating, Lambsquarters [9, 18]: 0
- Plant response rating, Lambsquarters [9, 19]: 20
- Plant response rating, Lambsquarters [9, 20]: 70
- Plant response rating, Lambsquarters [9, 21]: 0
- Plant response rating, Lambsquarters [9, 23]: 85
- Plant response rating, Lambsquarters [9, 24]: 95
- Plant response rating, Surinam Grass [10, 17]: 100
- Plant response rating, Surinam Grass [10, 18]: 100
- Plant response rating, Surinam Grass [10, 19]: 100
- Plant response rating, Surinam Grass [10, 20]: 100
- Plant response rating, Surinam Grass [10, 21]: 98
- Plant response rating, Surinam Grass [10, 22]: 98
- Plant response rating, Surinam Grass [10, 23]: 100
- Plant response rating, Surinam Grass [10, 24]: 100
- Plant response rating, Sunflower ([11]; 31 g ai/ha, 0 to 100 scale, 0 no effect, 100 complete control): 0
- Plant response rating, Sunflower ([11]; 62 g ai/ha, scale 0 to 100): 0
- Plant response rating, Sunflower ([11]; 125 g ai/ha, scale 0 to 100): 0
- Plant response rating, Sunflower ([11]; 250 g ai/ha, scale 0 to 100): 0
- Plant response rating, Ryegrass, Italian [12, 17]: 100
- Plant response rating, Ryegrass, Italian [12, 18]: 100
- Plant response rating, Ryegrass, Italian [12, 19]: 100
- Plant response rating, Ryegrass, Italian [12, 20]: 100
- Plant response rating, Ryegrass, Italian [12, 21]: 90
- Plant response rating, Ryegrass, Italian [12, 22]: 100
- Plant response rating, Ryegrass, Italian [12, 23]: 100
- Plant response rating, Ryegrass, Italian [12, 24]: 100
- Plant response rating, Foxtail, Giant [13, 17]: 100
- Plant response rating, Foxtail, Giant [13, 18]: 100
- Plant response rating, Foxtail, Giant [13, 19]: 100
- Plant response rating, Foxtail, Giant [13, 20]: 100
- Plant response rating, Foxtail, Giant [13, 21]: 100
- Plant response rating, Foxtail, Giant [13, 22]: 100
- Plant response rating, Foxtail, Giant [13, 23]: 100
- Plant response rating, Foxtail, Giant [13, 24]: 100
- Plant response rating, Wheat [14, 17]: 90
- Plant response rating, Wheat [14, 18]: 100
- Plant response rating, Wheat [14, 19]: 100
- Plant response rating, Wheat [14, 20]: 100
- Plant response rating, Wheat [14, 21]: 35
- Plant response rating, Wheat [14, 22]: 80
- Plant response rating, Wheat [14, 23]: 90
- Plant response rating, Wheat [14, 24]: 90
- Plant response rating, Pigweed [15, 17]: 0
- Plant response rating, Pigweed [15, 18]: 0
- Plant response rating, Pigweed [15, 19]: 0
- Plant response rating, Pigweed [15, 20]: 40
- Plant response rating, Pigweed [15, 22]: 0
- Plant response rating, Pigweed [15, 23]: 30
- Plant response rating, Pigweed [15, 24]: 60
